The results in this text go back to patent publication US10144714B2, “Methods of making protein deacetylase inhibitors” (Acetylon Pharmaceuticals, Inc., priority 2015, dated 2018).

A short description of series [1]: Dynamic vapor sorption (DVS) analysis. To be noted: relative humidity between 0-95 percent, Form I/Pattern A. In kind it is physicochemical. Here is the method:
Dynamic Vapor Soprtion (DVS) analysis was performed using an Aquadyne DVS-2 gravimetric water sorption analyzer. The relative humidity was adjusted between 2-95% and the weight of the sample was continuously monitored and recorded with respect to the relative humidity and time.

Series [2] can be described thus: Thermal gravimetric analysis (TGA). Type of series: physicochemical. To be noted: from 35 to 150° C.; Form I. Here is the method: Thermal Gravimetric Analysis (TGA) data were collected using a TA Instruments TGA Q500. Approximately, 5-10 mg samples were placed in an open, pre-tared aluminum sample pan and scanned from 25 to 300° C. at a rate of 10° C./min using a nitrogen purge at 60 mL/min.

On to `O=C(CCCCCCNC(=O)c1cnc(N(c2ccccc2)c2ccccc2Cl)nc1)NO` [Compound (I), 2-((2-chlorophenyl)(phenyl)amino)-N-(7-(hydroxyamino)-7-oxoheptyl)pyrimidine-5-carboxamide], for which, in series [1] (after DVS), the “change in the crystalline form” value was “no change in the crystalline form”. Further, the moisture uptake result in series [1] was “less than 0.2%”. Besides, the weight loss result in series [2] is given as “less than 0.1%”.
